The results in this text go back to paper PMC5467235, “Variation in auxin sensing guides AUX/IAA transcriptional repressor ubiquitylation and destruction” (Nature Communications, 2017).

For assay [1], the target named is T1, ASK1-TIR1-IAA6 co-receptor complex (TIR1-IAA6) (Arabidopsis thaliana, UniProt Q38824+Q570C0).
T1 construct: ASK1-TIR1 from insect cells (Sf9 or Hi5), purified; IAA6 N-terminally GST-tagged from E. coli, full length; with SKP1-like protein 1A
T1 sequence (Q570C0 1-594): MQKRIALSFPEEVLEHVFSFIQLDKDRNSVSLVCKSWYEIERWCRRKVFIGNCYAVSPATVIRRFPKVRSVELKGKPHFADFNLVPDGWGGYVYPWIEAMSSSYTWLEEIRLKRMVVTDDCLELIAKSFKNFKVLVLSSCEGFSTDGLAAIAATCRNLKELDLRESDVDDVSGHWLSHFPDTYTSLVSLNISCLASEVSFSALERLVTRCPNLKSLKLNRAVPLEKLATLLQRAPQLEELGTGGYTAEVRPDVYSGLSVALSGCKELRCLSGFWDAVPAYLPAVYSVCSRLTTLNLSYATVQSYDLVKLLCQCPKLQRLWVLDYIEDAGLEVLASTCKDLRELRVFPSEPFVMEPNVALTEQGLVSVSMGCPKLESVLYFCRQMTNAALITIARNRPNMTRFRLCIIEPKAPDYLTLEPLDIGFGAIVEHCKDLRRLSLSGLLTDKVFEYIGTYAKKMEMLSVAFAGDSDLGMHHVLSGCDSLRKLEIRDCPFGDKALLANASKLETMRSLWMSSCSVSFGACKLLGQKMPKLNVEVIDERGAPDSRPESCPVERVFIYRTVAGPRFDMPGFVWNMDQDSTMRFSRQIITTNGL
T1 sequence (Q38824 1-189): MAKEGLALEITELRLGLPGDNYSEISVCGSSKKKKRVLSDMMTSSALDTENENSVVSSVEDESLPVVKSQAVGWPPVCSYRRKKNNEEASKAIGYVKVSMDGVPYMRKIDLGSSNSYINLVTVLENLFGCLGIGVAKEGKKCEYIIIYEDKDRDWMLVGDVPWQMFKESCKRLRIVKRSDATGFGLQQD
T1 sequence (Q39255 1-160 partner): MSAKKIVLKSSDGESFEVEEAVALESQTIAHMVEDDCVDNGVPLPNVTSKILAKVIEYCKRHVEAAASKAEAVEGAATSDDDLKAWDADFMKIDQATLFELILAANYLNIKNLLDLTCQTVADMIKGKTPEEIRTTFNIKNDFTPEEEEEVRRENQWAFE
The experiment in a line: homologous competition radioligand binding.

Assay [2] has as its target T2, ASK1-TIR1-IAA6 co-receptor complex (TIR1-IAA6) (Arabidopsis thaliana, UniProt Q38824+Q570C0, Q38824:C78R).
T2 construct: ASK1-TIR1 from insect cells (Sf9 or Hi5), purified; IAA6 N-terminally GST-tagged from E. coli, full length; with SKP1-like protein 1A
T2 sequence (Q570C0 1-594): T1 sequence (Q570C0 1-594)
T2 sequence (Q38824 1-189 C78R): T1 sequence (Q38824 1-189) with C78R
T2 sequence (Q39255 1-160 partner): T1 sequence (Q39255 1-160 partner)
The experiment in a line: one-point [3H]IAA saturation binding. The note with it: labelled compound; 200 nM [3H]IAA; shy1-1 degron mutant.

Assay [3] concerns the target T3, AFB2-IAA6 (yeast two-hybrid) (Arabidopsis thaliana, UniProt Q38824+Q9LW29).
T3 construct: LexA DBD-AFB2 and AD-IAA6 fusions in yeast diploids
T3 sequence (Q9LW29 1-575): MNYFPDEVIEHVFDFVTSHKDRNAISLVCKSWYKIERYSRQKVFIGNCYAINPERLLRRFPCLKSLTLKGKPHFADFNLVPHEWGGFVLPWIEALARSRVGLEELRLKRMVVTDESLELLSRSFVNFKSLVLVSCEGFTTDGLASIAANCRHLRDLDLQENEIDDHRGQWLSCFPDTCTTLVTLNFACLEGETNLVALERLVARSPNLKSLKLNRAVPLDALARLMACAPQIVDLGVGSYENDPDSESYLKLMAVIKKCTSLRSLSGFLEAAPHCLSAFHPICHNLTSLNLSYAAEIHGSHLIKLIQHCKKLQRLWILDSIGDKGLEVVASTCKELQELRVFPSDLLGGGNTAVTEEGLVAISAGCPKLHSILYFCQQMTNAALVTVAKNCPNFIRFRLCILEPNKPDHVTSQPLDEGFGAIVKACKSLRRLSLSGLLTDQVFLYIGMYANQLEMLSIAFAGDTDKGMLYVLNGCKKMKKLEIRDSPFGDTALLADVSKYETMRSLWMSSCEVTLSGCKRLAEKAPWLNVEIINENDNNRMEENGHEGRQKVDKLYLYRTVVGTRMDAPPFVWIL
T3 sequence (Q38824 1-189): T1 sequence (Q38824 1-189)
The experiment in a line: yeast two-hybrid, beta-galactosidase reporter. The format is cell-based. The note with it: auxin-dependent association in yeast; low micromolar IAA.

Assay [4] has as its target T4, AFB1-IAA6 (yeast two-hybrid) (Arabidopsis thaliana, UniProt Q38824+Q9ZR12).
T4 construct: gene GRH1; LexA DBD-AFB1 and AD-IAA6 fusions in yeast diploids
T4 sequence (Q9ZR12 1-585): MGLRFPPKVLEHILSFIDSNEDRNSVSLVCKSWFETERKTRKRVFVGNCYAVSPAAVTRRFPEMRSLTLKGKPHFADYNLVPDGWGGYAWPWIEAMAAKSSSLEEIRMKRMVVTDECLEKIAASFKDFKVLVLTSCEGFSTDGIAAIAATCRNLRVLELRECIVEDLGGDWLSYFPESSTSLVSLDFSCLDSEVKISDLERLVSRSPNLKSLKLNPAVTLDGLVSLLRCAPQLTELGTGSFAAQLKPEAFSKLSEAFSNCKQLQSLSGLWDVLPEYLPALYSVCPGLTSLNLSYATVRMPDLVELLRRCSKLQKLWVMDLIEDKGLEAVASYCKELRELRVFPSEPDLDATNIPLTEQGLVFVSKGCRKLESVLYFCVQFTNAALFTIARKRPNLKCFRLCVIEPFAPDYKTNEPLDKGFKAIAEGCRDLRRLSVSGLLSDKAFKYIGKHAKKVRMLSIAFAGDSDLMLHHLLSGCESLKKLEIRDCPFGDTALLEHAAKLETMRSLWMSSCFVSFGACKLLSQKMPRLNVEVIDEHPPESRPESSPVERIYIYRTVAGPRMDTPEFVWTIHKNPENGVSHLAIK
T4 sequence (Q38824 1-189): T1 sequence (Q38824 1-189)
The experiment in a line: yeast two-hybrid, beta-galactosidase reporter. The format is cell-based. The settings on record: auxin-dependent association in yeast; low micromolar IAA.

For assay [5], the target named is T5, ASK1-TIR1-IAA19 co-receptor complex (TIR1-IAA19) (Arabidopsis thaliana, UniProt O24409+Q570C0).
T5 construct: ASK1-TIR1 from insect cells (Sf9 or Hi5), purified; IAA19 N-terminally GST-tagged from E. coli, full length; with SKP1-like protein 1A
T5 sequence (Q570C0 1-594): T1 sequence (Q570C0 1-594)
T5 sequence (O24409 1-197): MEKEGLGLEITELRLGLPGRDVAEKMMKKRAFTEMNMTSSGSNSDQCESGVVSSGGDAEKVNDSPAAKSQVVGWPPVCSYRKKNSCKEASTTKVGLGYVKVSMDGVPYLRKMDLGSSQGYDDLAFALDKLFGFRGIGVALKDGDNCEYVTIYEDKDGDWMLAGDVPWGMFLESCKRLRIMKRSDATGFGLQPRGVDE
T5 sequence (Q39255 1-160 partner): T1 sequence (Q39255 1-160 partner)
Put plainly: [3H]IAA saturation radioligand binding.

Assay [6] concerns the target T5, ASK1-TIR1-IAA19 co-receptor complex (TIR1-IAA19). Put plainly: homologous competition radioligand binding. The settings on record: unlabelled IAA against 25 nM [3H]IAA.
Assay [7] has the same target. Put plainly: homologous competition radioligand binding.
Assay [8] addresses T6, ASK1-TIR1-IAA19 co-receptor complex (TIR1-IAA19) (Arabidopsis thaliana, UniProt O24409+Q570C0, O24409:P76S).
T6 construct: ASK1-TIR1 from insect cells (Sf9 or Hi5), purified; IAA19 N-terminally GST-tagged from E. coli, full length; with SKP1-like protein 1A
T6 sequence (Q570C0 1-594): T1 sequence (Q570C0 1-594)
T6 sequence (O24409 1-197 P76S): T5 sequence (O24409 1-197) with P76S
T6 sequence (Q39255 1-160 partner): T1 sequence (Q39255 1-160 partner)
Put plainly: one-point [3H]IAA saturation binding. The note with it: labelled compound; 200 nM [3H]IAA; msg2-1 degron mutant.

Assay [9] addresses T7, AFB1-IAA19 (yeast two-hybrid) (Arabidopsis thaliana, UniProt O24409+Q9ZR12).
T7 construct: gene GRH1; LexA DBD-AFB1 and AD-IAA19 fusions in yeast diploids
T7 sequence (Q9ZR12 1-585): T4 sequence (Q9ZR12 1-585)
T7 sequence (O24409 1-197): T5 sequence (O24409 1-197)
Put plainly: yeast two-hybrid, beta-galactosidase reporter. The format is cell-based. The note with it: auxin-dependent association in yeast; low micromolar IAA.

The target of assay [10] is T8, AFB2-IAA19 (yeast two-hybrid) (Arabidopsis thaliana, UniProt O24409+Q9LW29).
T8 construct: LexA DBD-AFB2 and AD-IAA19 fusions in yeast diploids
T8 sequence (Q9LW29 1-575): T3 sequence (Q9LW29 1-575)
T8 sequence (O24409 1-197): T5 sequence (O24409 1-197)
Put plainly: yeast two-hybrid, beta-galactosidase reporter. The format is cell-based. The note with it: auxin-dependent association in yeast; low micromolar IAA.

Assay [11] has as its target T1, ASK1-TIR1-IAA6 co-receptor complex (TIR1-IAA6). Put plainly: [3H]IAA saturation radioligand binding.
For assay [12] the target is unchanged. Put plainly: homologous competition radioligand binding. The settings on record: unlabelled IAA against 50 nM [3H]IAA.

What is called Ki is a dissociation constant, usually derived from enzyme kinetics or from competition with a known ligand. Read a high Ki as a looser hold on the target. As a reminder, the Kd is the constant that tells how readily two partners part at equilibrium.

SMILES strings stand for the structures. Numbering of substitutions follows the chain as printed.

Consider `O=C(O)Cc1c[nH]c2ccccc12` [IAA], for which the values for the inhibitory constant (Ki) in [1] and in assay [7] were 99.3 ± 11.9 nM and 33.5 ± 3.7 nM, respectively. Moreover, the “specific binding at 200 nM” value was “IAA6^C78R/shy1-1 and IAA19^P76S/msg2-1 mutants that mimic stabilized version of the proteins affect significantly” in assay [2]; “IAA6^C78R/shy1-1 and IAA19^P76S/msg2-1 mutants that mimic stabilized version of the proteins affect significantly” in assay [8]. In addition, the “yeast two-hybrid, beta-galactosidase reporter” value was “IAA6 and IAA19 interacted in an auxin-dependent manner with TIR1, AFB1 and AFB2” in assay [3]; “IAA6 and IAA19 interacted in an auxin-dependent manner with TIR1, AFB1 and AFB2” in assay [4]; “IAA6 and IAA19 interacted in an auxin-dependent manner with TIR1, AFB1 and AFB2” in assay [9]; “IAA6 and IAA19 interacted in an auxin-dependent manner with TIR1, AFB1 and AFB2” in assay [10]. Moreover, the equilibrium dissociation constant (Kd) in assay [5] is 15.6 ± 2 nM; in [11], 72 ± 10.5 nM. Further, the IC50 result in assay [6] is “determined IC50 and Ki values for each of the complexes”; in assay [12] it was “determined IC50 and Ki values for each of the complexes”.
